According to BindingDB's records for doi:10.1002/cbic.200600287 (Mcgill University, 2007):

Assays:
Experiment in all cases: PTP Assay
[1] = target: T1, Tyrosine-protein phosphatase non-receptor type 1 (Homo sapiens, UniProt P18031); details: 25 °C
T1 sequence (P18031 whole entry): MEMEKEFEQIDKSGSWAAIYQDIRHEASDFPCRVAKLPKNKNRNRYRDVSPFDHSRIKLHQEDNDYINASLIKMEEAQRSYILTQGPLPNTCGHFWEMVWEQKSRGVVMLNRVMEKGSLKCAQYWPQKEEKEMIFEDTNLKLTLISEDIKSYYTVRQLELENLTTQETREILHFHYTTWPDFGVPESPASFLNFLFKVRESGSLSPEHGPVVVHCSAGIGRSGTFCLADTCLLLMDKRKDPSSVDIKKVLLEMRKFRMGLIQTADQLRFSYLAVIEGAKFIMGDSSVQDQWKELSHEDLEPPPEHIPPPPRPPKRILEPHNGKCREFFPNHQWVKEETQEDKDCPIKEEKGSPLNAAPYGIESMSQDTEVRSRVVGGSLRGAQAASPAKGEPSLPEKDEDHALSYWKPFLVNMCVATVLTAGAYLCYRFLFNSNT
Method: (§1) PTP assay were conducted at 25 C in 96-well plates. Reaction rates were determined using a Variokan plate reader from Thermo Electron. For assay pH 7.0 absorbance was measured every 30s over 10 min and the reaction rates were calculated by linear regression. Because the p-nitrophenol product does not absorb at pH 6.0.

[2] = target: Receptor-type tyrosine-protein phosphatase F (Homo sapiens, UniProt P10586); details: pH 6; 25 °C
Method: as §1

[3] = target: Tyrosine-protein phosphatase non-receptor type 6 (Homo sapiens, UniProt P29350); details: pH 7; 25 °C
Method: as §1

[4] = target: T2, Tyrosine-protein phosphatase non-receptor type 7 (Homo sapiens, UniProt P35236); details: pH 7; 25 °C
T2 sequence (P35236 whole entry): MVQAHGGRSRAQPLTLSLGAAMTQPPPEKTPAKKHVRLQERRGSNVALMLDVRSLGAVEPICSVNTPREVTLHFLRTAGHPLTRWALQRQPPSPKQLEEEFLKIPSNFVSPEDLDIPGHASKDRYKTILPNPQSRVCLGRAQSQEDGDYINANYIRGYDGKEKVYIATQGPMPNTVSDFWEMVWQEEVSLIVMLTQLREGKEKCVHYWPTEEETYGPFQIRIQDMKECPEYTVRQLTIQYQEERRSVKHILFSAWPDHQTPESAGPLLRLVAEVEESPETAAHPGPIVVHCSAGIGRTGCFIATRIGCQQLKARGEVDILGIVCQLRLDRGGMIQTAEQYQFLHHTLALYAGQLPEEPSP
Method: as §1

[5] = target: T3, Tyrosine-protein phosphatase non-receptor type 2 (Homo sapiens, UniProt P17706); details: pH 7; 25 °C
T3 sequence (P17706 whole entry): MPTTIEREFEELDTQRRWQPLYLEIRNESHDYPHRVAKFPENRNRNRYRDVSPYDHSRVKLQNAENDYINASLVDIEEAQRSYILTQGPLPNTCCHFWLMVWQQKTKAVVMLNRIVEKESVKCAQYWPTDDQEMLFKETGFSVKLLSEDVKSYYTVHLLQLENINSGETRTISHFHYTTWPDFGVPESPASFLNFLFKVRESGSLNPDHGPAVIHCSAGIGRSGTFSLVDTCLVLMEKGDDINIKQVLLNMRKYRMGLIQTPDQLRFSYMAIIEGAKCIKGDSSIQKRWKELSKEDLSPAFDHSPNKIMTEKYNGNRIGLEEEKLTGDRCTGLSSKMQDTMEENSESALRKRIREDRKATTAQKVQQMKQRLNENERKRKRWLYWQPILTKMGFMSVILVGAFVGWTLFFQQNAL
Method: as §1

[6] = target: T4, Dual specificity protein phosphatase 22 (Homo sapiens, UniProt Q9NRW4); details: pH 6; 25 °C
T4 sequence (Q9NRW4 whole entry): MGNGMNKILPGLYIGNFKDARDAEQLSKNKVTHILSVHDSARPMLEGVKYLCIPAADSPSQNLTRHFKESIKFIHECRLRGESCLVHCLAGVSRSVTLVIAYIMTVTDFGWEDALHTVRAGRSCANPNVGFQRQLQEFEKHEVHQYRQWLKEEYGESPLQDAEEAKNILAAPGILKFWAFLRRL
Method: as §1

[7] = target: Tyrosine-protein phosphatase non-receptor type 13 (Homo sapiens, UniProt Q12923); details: pH 7; 25 °C
Method: as §1

Tyrosine-protein phosphatase non-receptor type 6, sequence (P29350 whole entry): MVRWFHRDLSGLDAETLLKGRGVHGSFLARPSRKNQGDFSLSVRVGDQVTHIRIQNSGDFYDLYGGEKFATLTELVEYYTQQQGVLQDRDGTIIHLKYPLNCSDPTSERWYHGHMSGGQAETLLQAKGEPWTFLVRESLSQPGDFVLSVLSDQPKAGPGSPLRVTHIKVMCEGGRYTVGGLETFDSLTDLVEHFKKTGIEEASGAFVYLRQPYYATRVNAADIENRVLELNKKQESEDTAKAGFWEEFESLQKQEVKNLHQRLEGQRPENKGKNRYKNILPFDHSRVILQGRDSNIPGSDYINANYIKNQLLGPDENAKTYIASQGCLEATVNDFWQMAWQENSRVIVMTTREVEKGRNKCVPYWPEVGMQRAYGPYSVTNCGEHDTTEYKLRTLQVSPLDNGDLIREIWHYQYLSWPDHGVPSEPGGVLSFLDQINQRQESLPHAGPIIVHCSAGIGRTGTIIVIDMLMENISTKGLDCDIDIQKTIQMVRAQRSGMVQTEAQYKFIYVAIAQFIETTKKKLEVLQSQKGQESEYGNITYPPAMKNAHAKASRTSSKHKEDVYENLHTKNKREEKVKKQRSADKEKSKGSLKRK
Tyrosine-protein phosphatase non-receptor type 13, sequence (Q12923 whole entry): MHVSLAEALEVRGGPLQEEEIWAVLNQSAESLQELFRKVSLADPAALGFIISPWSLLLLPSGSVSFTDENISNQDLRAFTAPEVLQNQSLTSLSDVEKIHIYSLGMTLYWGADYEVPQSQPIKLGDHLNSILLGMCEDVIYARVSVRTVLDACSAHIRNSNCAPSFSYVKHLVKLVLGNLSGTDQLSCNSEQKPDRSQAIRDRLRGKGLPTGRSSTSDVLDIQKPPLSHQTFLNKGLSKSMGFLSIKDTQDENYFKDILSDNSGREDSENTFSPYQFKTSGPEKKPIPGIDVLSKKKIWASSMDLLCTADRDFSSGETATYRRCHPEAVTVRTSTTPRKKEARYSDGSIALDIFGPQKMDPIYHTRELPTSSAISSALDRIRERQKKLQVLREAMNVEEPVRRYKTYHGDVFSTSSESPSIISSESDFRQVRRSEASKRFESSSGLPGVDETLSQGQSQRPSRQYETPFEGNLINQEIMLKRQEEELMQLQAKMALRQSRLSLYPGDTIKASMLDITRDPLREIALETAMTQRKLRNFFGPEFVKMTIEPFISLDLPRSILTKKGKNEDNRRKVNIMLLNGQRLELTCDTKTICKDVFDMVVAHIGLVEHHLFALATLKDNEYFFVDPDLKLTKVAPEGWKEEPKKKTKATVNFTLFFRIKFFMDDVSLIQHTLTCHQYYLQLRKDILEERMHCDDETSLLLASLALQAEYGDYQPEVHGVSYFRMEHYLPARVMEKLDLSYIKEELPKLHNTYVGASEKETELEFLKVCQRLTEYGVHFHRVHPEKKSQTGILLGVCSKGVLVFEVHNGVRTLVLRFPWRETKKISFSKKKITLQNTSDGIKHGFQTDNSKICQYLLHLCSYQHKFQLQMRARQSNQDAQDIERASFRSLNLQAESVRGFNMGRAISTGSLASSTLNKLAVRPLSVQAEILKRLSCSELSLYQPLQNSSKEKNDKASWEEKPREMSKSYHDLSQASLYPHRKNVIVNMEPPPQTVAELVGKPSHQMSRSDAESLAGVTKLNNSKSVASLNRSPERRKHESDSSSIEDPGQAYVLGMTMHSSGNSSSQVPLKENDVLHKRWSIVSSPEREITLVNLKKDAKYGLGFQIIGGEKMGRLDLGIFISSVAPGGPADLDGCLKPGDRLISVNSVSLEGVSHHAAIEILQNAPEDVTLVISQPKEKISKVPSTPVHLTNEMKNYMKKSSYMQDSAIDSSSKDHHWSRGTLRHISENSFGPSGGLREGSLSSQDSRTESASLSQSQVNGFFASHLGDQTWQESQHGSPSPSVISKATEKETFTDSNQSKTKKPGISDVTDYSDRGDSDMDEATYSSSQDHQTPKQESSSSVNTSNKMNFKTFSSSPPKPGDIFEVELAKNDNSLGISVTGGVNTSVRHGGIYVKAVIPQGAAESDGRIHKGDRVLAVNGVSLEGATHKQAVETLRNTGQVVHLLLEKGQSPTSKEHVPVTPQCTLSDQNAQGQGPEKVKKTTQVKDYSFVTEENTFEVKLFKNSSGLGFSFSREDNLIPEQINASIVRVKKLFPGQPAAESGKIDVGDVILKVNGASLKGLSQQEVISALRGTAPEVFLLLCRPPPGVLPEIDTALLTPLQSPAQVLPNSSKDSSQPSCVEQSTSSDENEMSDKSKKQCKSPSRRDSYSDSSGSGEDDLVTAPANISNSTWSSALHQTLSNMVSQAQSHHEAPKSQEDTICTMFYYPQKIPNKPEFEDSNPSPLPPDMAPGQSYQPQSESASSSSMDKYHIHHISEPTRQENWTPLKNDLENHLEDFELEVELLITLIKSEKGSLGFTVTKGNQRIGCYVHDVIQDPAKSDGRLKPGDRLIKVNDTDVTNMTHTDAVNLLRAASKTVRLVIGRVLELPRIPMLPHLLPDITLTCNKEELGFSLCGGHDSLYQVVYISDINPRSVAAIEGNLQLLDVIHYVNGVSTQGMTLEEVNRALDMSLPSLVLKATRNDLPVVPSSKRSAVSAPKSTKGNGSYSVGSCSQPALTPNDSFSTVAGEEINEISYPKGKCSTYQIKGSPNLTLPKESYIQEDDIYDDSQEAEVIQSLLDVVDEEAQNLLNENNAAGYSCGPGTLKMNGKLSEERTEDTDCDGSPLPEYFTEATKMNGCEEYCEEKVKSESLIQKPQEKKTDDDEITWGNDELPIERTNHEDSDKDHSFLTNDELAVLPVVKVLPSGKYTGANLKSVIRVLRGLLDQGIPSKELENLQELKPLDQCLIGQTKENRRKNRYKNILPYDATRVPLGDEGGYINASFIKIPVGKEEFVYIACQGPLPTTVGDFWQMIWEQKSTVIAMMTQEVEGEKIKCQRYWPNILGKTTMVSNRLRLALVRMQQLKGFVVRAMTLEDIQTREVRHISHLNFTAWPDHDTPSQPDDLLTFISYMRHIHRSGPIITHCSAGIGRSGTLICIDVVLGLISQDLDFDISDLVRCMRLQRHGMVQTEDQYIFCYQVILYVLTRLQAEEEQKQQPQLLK
Receptor-type tyrosine-protein phosphatase F, sequence (P10586 whole entry): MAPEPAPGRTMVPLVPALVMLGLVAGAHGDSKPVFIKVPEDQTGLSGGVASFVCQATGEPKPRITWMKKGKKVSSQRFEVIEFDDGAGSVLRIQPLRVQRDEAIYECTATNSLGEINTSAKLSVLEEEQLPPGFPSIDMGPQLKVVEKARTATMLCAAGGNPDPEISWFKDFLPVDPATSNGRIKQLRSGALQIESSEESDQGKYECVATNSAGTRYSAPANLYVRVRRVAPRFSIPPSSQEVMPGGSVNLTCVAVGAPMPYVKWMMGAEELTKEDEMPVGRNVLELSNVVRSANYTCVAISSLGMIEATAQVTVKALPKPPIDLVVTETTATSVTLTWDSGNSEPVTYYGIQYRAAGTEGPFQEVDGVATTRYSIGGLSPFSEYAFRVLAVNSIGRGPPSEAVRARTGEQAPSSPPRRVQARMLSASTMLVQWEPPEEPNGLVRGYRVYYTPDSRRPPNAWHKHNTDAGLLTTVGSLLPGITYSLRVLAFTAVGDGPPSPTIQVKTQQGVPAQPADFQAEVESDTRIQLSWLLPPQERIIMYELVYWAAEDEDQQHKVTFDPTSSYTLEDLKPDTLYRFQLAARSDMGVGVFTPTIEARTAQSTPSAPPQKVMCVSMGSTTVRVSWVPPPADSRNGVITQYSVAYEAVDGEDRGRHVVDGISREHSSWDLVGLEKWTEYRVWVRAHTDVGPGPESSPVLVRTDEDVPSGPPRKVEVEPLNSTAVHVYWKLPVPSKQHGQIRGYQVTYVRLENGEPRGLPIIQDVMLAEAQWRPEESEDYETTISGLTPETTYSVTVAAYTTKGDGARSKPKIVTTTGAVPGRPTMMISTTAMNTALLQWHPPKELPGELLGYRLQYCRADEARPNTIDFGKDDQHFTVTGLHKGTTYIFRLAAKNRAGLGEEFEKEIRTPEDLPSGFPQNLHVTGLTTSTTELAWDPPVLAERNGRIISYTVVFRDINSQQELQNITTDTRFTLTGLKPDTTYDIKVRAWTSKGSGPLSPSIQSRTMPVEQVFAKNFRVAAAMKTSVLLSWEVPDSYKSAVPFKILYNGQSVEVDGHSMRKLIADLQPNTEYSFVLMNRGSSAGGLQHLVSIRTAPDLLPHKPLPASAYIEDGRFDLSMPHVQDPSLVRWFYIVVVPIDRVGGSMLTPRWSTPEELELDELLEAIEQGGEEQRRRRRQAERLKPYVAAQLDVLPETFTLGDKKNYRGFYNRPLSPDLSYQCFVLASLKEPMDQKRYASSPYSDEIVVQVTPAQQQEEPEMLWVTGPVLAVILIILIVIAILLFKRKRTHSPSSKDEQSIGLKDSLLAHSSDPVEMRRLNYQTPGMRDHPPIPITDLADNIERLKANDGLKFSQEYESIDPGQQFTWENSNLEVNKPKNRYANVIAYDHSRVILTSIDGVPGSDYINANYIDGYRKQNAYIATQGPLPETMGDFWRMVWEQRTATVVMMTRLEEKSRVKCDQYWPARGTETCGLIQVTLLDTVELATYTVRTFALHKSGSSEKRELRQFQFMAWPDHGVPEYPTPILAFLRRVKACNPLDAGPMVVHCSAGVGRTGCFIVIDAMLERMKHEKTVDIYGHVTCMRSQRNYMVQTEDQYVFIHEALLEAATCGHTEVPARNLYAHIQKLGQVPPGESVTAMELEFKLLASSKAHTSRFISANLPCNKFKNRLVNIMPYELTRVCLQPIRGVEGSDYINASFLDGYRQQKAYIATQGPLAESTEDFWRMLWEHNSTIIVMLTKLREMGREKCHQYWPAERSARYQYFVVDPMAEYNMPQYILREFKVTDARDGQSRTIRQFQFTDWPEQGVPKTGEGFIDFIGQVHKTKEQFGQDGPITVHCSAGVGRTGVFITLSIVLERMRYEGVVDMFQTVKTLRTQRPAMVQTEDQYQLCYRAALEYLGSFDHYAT

IC50 [1] [µM] | Compound | also measured
12 | COc1cc(/C=C2\SC(=S)N(c3cccc(F)c3)C2=O)cc([N+](=O)[O-])c1O [Thioxothiazolidinone derivative, 5] | 
7.3 | COc1cc(/C=C2\SC(=S)N(c3cccc(Cl)c3)C2=O)cc(C(=O)O)c1O [Thioxothiazolidinone derivative, 17] | 
18.1 | O=C1/C(=C/c2cc(O)c(O)c([N+](=O)[O-])c2)SC(=S)N1c1cccc(Cl)c1 [Thioxothiazolidinone derivative, 15] | 
> 100 | COc1cc(/C=C2\SC(=S)N(c3ccccc3)C2=O)cc([N+](=O)[O-])c1O [Thioxothiazolidinone derivative, 3] | 
7 | COc1cc(/C=C2\SC(=S)N(c3ccc(Cl)c(Cl)c3)C2=O)cc([N+](=O)[O-])c1O [Thioxothiazolidinone derivative, 12] | 
29 | COc1cc(/C=C2\SC(=S)N(c3cccc(C)c3)C2=O)cc([N+](=O)[O-])c1O [Thioxothiazolidinone derivative, 6] | 
68 | O=C1/C(=C/c2ccc(O)c([N+](=O)[O-])c2)SC(=S)N1c1cccc(Cl)c1 [Thioxothiazolidinone derivative, 13] | 
16 | COc1cccc(N2C(=O)/C(=C/c3cc(OC)c(O)c([N+](=O)[O-])c3)SC2=S)c1 [Thioxothiazolidinone derivative, 7] | 
6.3 | COc1ccc(N2C(=O)/C(=C/c3cc(OC)c(O)c([N+](=O)[O-])c3)SC2=S)cc1 [Thioxothiazolidinone derivative, 10] | 
29 | COc1cc(/C=C2\SC(=S)N(c3ccc(O)cc3)C2=O)cc([N+](=O)[O-])c1O [Thioxothiazolidinone derivative, 8] | 
44 | COc1cc(/C=C2\SC(=S)N(c3cccc(Cl)c3)C2=O)ccc1O [Thioxothiazolidinone derivative, 14] | 
 | COc1cc(/C=C2\SC(=S)N(c3cccc(Cl)c3)C2=O)cc([N+](=O)[O-])c1O [Thioxothiazolidinone derivative, 1] | IC50 [2]: > 50 µM; IC50 [3]: 3.9 µM; IC50 [4]: 9.3 µM; IC50 [5]: 5.3 µM; IC50 ([1]; pH 6): 4.3 µM; IC50 ([1]; pH 7): 4.1 µM; IC50 [6]: > 50 µM; IC50 [7]: 3.7 µM
> 100 | COc1cc(C=C2SC(=S)N(c3cccc(Cl)c3)C2=O)cc(CP(=O)(O)O)c1O [Thioxothiazolidinone derivative, 18] | 
8.8 | COc1cc(/C=C2\SC(=S)N(c3ccc(C)cc3)C2=O)cc([N+](=O)[O-])c1O [Thioxothiazolidinone derivative, 9] | 
5.4 | COc1cc(/C=C2\SC(=S)N(c3ccc(Cl)cc3)C2=O)cc([N+](=O)[O-])c1O [Thioxothiazolidinone derivative, 4] | 
7 | COc1cc(/C=C2\SC(=S)N(c3ccc([N+](=O)[O-])cc3)C2=O)cc([N+](=O)[O-])c1O [Thioxothiazolidinone derivative, 11] | 
